# Experiments:
# Type in all cases: cell-based
# [1] = tested on: HeLa cells; assay: CellTiter-Glo cell viability, HeLa; details: Homo sapiens, 72 h
# Procedure: (§1) The cell viability of 50 cancer cell lines was studied after treatment with Compound 121. Inhibition concentration values at 50% (IC50) were determined using CellTiter-Glo luminescent cell viability assay after incubation with different compound concentrations. GI50 values were determined according to the examples described above. Each cell line was treated with Compound 121, a standard chemotherapy drug as a reference control, and culture medium as a vehicle control.
# (§2) All cells were cultured in media supplemented with 10-15% FBS at 37° C. in the presence of 5% CO2 and at 95% humidity. The culture medium was purchased from GIBCO or Sigma, USA. Cisplatin was chosen as the reference control and purchased from Hospira Australia Pty Ltd. The cell lines studied are presented in Table 5.
# (§3) Cells were harvested during a logarithmic growth period and cell number count was determined using Count-star. Cell concentrations were adjusted to 4.44×10^4 cells/mL with respective culture medium. 90 μL of cell suspensions were added to two 96-well plates (plates A and B) with a final cell density of 4×10^3 cells/well.
# (§4) 10 μL of culture medium was added to each well of plate A for TO reading. The plate was allowed to equilibrate at room temperature for approximately 30 min. 50 μL of CellTiter-Glo was added to each well and the contents were mixed for 5 min on an orbital shaker to induce cell lysis. The plate was allowed to incubate at room temperature for 20 min to stabilize luminescent signal.
# (§5) 10 μM Compound 121 in media was serially diluted 3.16-fold to achieve 9 dose levels. Similarly, 100 μM reference control in media was serially diluted 3.16-fold to prepare reference control solutions. 10 μL drug solution and 10 μL of reference control was dispensed into each well in plate B.
# (§6) Test plate B was incubated for 72 h in a humidified incubator at 37° C. in the presence of 5% CO2 and then subjected to CTG assay. The plate was allowed to equilibrate at room temperature for about 30 min. 50 μL of CellTiter-Glo was added to each well and the contents were mixed for 5 min on an orbital shaker to induce cell lysis. The plate was allowed to incubate at room temperature for 20 min to stabilize luminescent signal.
# (§7) IC50 and GI50 values for each of the 50 cell lines are presented in Table 6 and were calculated based on the dose-response curves depicted in FIGS. 1-50. The dose-response curves were fitted using nonlinear regression model with a sigmoidal dose response. The formula for calculating survival rate was calculated by the formula:
# (§8) Survival rate (%)=(LumTest article−LumMedium control)/(LumNone treated−LumMedium control)×100.
# [2] = tested on: KYSE-150 cells; assay: CellTiter-Glo cell viability, KYSE-150; details: Homo sapiens, 72 h
# Procedure: as §1, §2, §3, §4, §5, §6, §7, §8
# [3] = tested on: HuT 78 cells; assay: CellTiter-Glo cell viability, HuT 78; details: Homo sapiens, HuT78, 72 h
# Procedure: as §1, §2, §3, §4, §5, §6, §7, §8
# [4] = tested on: EBC-1 cells; assay: CellTiter-Glo cell viability, EBC-1; details: Homo sapiens, 72 h
# Procedure: as §1, §2, §3, §4, §5, §6, §7, §8
# [5] = tested on: PC-3 cells; assay: CellTiter-Glo cell viability, PC-3; details: Homo sapiens, 72 h
# Procedure: as §1, §2, §3, §4, §5, §6, §7, §8
# [6] = tested on: HL-60 cells; assay: CellTiter-Glo cell viability, HL-60; details: Homo sapiens, 72 h
# Procedure: as §1, §2, §3, §4, §5, §6, §7, §8
# [7] = tested on: 786-O cells; assay: CellTiter-Glo cell viability, 786-O; details: Homo sapiens, 786-0, 72 h
# Procedure: as §1, §2, §3, §4, §5, §6, §7, §8
# [8] = tested on: RPMI 8226 cells; assay: CellTiter-Glo cell viability, RPMI 8226; details: Homo sapiens, 72 h
# Procedure: as §1, §2, §3, §4, §5, §6, §7, §8
# [9] = tested on: MDA-MB-468 cells; assay: CellTiter-Glo cell viability, MDA-MB-468; details: Homo sapiens, 72 h
# Procedure: as §1, §2, §3, §4, §5, §6, §7, §8
# [10] = tested on: HCT-116 cells; assay: CellTiter-Glo cell viability, HCT-116; details: Homo sapiens, 72 h
# Procedure: as §1, §2, §3, §4, §5, §6, §7, §8
# [11] = tested on: MDA-MB-231 cells; assay: CellTiter-Glo cell viability, MDA-MB-231; details: Homo sapiens, 72 h
# Procedure: as §1, §2, §3, §4, §5, §6, §7, §8
# [12] = tested on: U251 cells; assay: CellTiter-Glo cell viability, U251; details: Homo sapiens, U-251, 72 h
# Procedure: as §1, §2, §3, §4, §5, §6, §7, §8
# [13] = tested on: K-562 cells; assay: CellTiter-Glo cell viability, K-562; details: Homo sapiens, K562, 72 h
# Procedure: as §1, §2, §3, §4, §5, §6, §7, §8
# [14] = tested on: 143B cells; assay: CellTiter-Glo cell viability, 143B; details: Homo sapiens, 72 h
# Procedure: as §1, §2, §3, §4, §5, §6, §7, §8
# [15] = tested on: KP4 cells; assay: CellTiter-Glo cell viability, KP4; details: Homo sapiens, KP-4, 72 h
# Procedure: as §1, §2, §3, §4, §5, §6, §7, §8
# [16] = tested on: HT-29 cells; assay: CellTiter-Glo cell viability, HT-29; details: Homo sapiens, 72 h
# Procedure: as §1, §2, §3, §4, §5, §6, §7, §8
# [17] = tested on: HuCCT1 cells; assay: CellTiter-Glo cell viability, HuCCT1; details: Homo sapiens, HuCCT-1, 72 h
# Procedure: as §1, §2, §3, §4, §5, §6, §7, §8
# [18] = tested on: NCI-H1975 cells; assay: CellTiter-Glo cell viability, NCI-H1975; details: Homo sapiens, 72 h
# Procedure: as §1, §2, §3, §4, §5, §6, §7, §8
# [19] = tested on: AN3 CA cells; assay: CellTiter-Glo cell viability, AN3 CA; details: Homo sapiens, 72 h
# Procedure: as §1, §2, §3, §4, §5, §6, §7, §8
# [20] = tested on: A2058 cells; assay: CellTiter-Glo cell viability, A2058; details: Homo sapiens, 72 h
# Procedure: as §1, §2, §3, §4, §5, §6, §7, §8
# [21] = tested on: HT-1080 cells; assay: CellTiter-Glo cell viability, HT-1080; details: Homo sapiens, 72 h
# Procedure: as §1, §2, §3, §4, §5, §6, §7, §8
# [22] = top conc. 10 μM Compound 121, 100 μM cisplatin
smiles,measurement,setting,value
Cc1cc(N2CCOC[C@@H]2C)ccc1-c1ccc(CC(=O)NCc2ccc(F)cc2)nc1 [Compound 121],GI50,[1]; read-out: Absolute GI50,4 nM
same,IC50,[1]; read-out: Absolute IC50,4 nM
same,inhibition at 10 µM,[1]; [22],89.5%
same,GI50,[2]; read-out: Absolute GI50,5 nM
same,IC50,[2]; read-out: Absolute IC50,6 nM
same,inhibition at 10 µM,[2]; [22],80%
same,GI50,[3]; read-out: Absolute GI50,8 nM
same,IC50,[3]; read-out: Absolute IC50,9 nM
same,inhibition at 10 µM,[3]; [22],95.2%
same,GI50,[4]; read-out: Absolute GI50,4 nM
same,IC50,[4]; read-out: Absolute IC50,4 nM
same,inhibition at 10 µM,[4]; [22],56.8%
same,GI50,[5]; read-out: Absolute GI50,8 nM
same,IC50,[5]; read-out: Absolute IC50,8 nM
same,inhibition at 10 µM,[5]; [22],93.3%
same,GI50,[6]; read-out: Absolute GI50,7 nM
same,IC50,[6]; read-out: Absolute IC50,8 nM
same,inhibition at 10 µM,[6]; [22],99.8%
same,GI50,[7]; read-out: Absolute GI50,5 nM
same,IC50,[7]; read-out: Absolute IC50,5 nM
same,inhibition at 10 µM,[7]; [22],85.3%
same,GI50,[8]; read-out: Absolute GI50,5 nM
same,IC50,[8]; read-out: Absolute IC50,6 nM
same,inhibition at 10 µM,[8]; [22],94.8%
same,GI50,[9]; read-out: Absolute GI50,7 nM
same,IC50,[9]; read-out: Absolute IC50,9 nM
same,inhibition at 10 µM,[9]; [22],80%
same,GI50,[10]; read-out: Absolute GI50,9 nM
same,IC50,[10]; read-out: Absolute IC50,9 nM
same,inhibition at 10 µM,[10]; [22],94.4%
same,GI50,[11]; read-out: Absolute GI50,20 nM
same,IC50,[11]; read-out: Absolute IC50,> 10000 nM
same,inhibition at 10 µM,[11]; [22],45.8%
same,GI50,[12]; read-out: Absolute GI50,9 nM
same,IC50,[12]; read-out: Absolute IC50,9 nM
same,inhibition at 10 µM,[12]; [22],75%
same,GI50,[13]; read-out: Absolute GI50,6 nM
same,IC50,[13]; read-out: Absolute IC50,6 nM
same,inhibition at 10 µM,[13]; [22],98.1%
same,GI50,[14]; read-out: Absolute GI50,8 nM
same,IC50,[14]; read-out: Absolute IC50,8 nM
same,inhibition at 10 µM,[14]; [22],97.8%
same,GI50,[15]; read-out: Absolute GI50,7 nM
same,IC50,[15]; read-out: Absolute IC50,8 nM
same,inhibition at 10 µM,[15]; [22],90.8%
same,GI50,[16]; read-out: Absolute GI50,4 nM
same,IC50,[16]; read-out: Absolute IC50,4 nM
same,inhibition at 10 µM,[16]; [22],78.5%
same,GI50,[17]; read-out: Absolute GI50,4 nM
same,IC50,[17]; read-out: Absolute IC50,4 nM
same,inhibition at 10 µM,[17]; [22],54%
same,GI50,[18]; read-out: Absolute GI50,6 nM
same,IC50,[18]; read-out: Absolute IC50,6 nM
same,inhibition at 10 µM,[18]; [22],83.7%
same,GI50,[19]; read-out: Absolute GI50,5 nM
same,IC50,[19]; read-out: Absolute IC50,5 nM
same,inhibition at 10 µM,[19]; [22],98.6%
same,GI50,[20]; read-out: Absolute GI50,8 nM
same,IC50,[20]; read-out: Absolute IC50,8 nM
same,inhibition at 10 µM,[20]; [22],98.1%
same,GI50,[21]; read-out: Absolute GI50,5 nM
same,IC50,[21]; read-out: Absolute IC50,5 nM
same,inhibition at 10 µM,[21]; [22],97.2%

# Reference: patent US20210196724A1, “BIARYL COMPOSITIONS AND METHODS FOR MODULATING A KINASE CASCADE” (Athenex, Inc., priority 2016, published 2021)
